Measurements published in patent publication US20260232666A1, “COMPOSITIONS AND METHODS FOR INHIBITION OF RAS” (TheRas, Inc., priority 2023, published 2026).

Legend:
[1] = biological target: T1, GTP-loaded KRAS4b (amino acids 1-169) G12C/C118S protein (Homo sapiens, UniProt P01116, C118S/G12C); assay: Covalent cysteine 12 modification by MALDI-TOF MS, GTP-loaded KRAS G12C; format: binding; conditions: 15 minutes reaction time point
T1 construct: KRAS4b (amino acids 1-169) G12C/C118S protein; made in house
How it was run: (§1)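 Covalent adduct formation measured by linear-mode MALDI-TOF MS as modified peak height over summed peak heights, 15 min time point reported. Reactions: KRAS4b 1-169 G12C/C118S (1 μM, loaded with GppNHp, GTP or GDP) plus compound at 1:2.5 ratio, pH 7.3 HEPES/NaCl/MgCl2, room temperature.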

[2] = biological target: T2, GppNHp-loaded KRAS4b (amino acids 1-169) G12C/C118S protein (Homo sapiens, UniProt P01116, C118S/G12C); assay: Covalent cysteine 12 modification by MALDI-TOF MS, GppNHp-loaded KRAS G12C; format: binding; conditions: 15 minutes reaction time point
T2 construct: KRAS4b (amino acids 1-169) G12C/C118S protein; made in house
How it was run: as §1

[3] = tested on: pERK in NCI-H358 cells; assay: Cell-based pERK HTRF assay (pERK inhibition in H358 cells); conditions: 30 min incubation
How it was run: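 NCI-H358 cells were seeded at 4×10^4 cells/well in RPMI/10% FBS, then treated next day for 30 min at 0.25% DMSO (9-point, 3-fold series from 75 μM). Lysates were read by HTRF (d2/Eu cryptate antibody pair, 615 nm emission) after 4–24 h at room temperature to give pERK IC50.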

| GTP-KRAS G12C percent of modification [1] | GppNHp-KRAS G12C percent of modification [2] | IC50 ([3]; Homo sapiens, NCI-H358, 0.5 h) [nM] | IC50 [3] [nM] | Compound |
| --- | --- | --- | --- | --- |
| B (50≤percent of modification <70%) | B (50≤percent of modification <70%) | < 100 |  | C=CC(=O)N1CC[C@@H](N(CC)c2nc(OC[C@@H]3C[C@@H](F)CN3C)nc3c(F)c(-c4ccc(F)c5sc(N)c(C#N)c45)c(Cl)cc23)[C@H]1C [Compound 60] |
| C (10%≤percent of modification <50%) | C (10%≤percent of modification <50%) | < 100 |  | C=CC(=O)N1CC[C@@H](N(C)c2nc(OC[C@@H]3C[C@@H](F)CN3C)nc3c(F)c(-c4ccc(F)c5sc(N)c(C#N)c45)c(Cl)cc23)[C@H]1C [Compound 61] |
| B (50≤percent of modification <70%) | B (50≤percent of modification <70%) | < 100 |  | C=CC(=O)N1CC[C@@H](N(C)c2nc(OC[C@@H]3C[C@@H](OC)CN3C)nc3c(F)c(-c4ccc(F)c5sc(N)c(C#N)c45)c(Cl)cc23)[C@H]1C [Compound 63, 4-(4-(((2R,3R)-1-acryloyl-2-methylpyrrolidin-3-yl)(methyl)amino)-6-chloro-8-fluoro-2-(((2S,4R)-4-methoxy-1-methylpyrrolidin-2-yl)methoxy)quinazolin-7-yl)-2-amino-7-fluorobenzo[b]thiophene-3-carbonitrile] |
| B (50≤percent of modification <70%) | B (50≤percent of modification <70%) | < 100 |  | C=CC(=O)N1CC[C@@H](N(C)c2nc(OC[C@@H]3CC4(CC4)CN3C)nc3c(F)c(-c4ccc(F)c5sc(N)c(C#N)c45)c(Cl)cc23)[C@H]1C [Compound 64] |
| A (percent of modification ≥70%) | A (percent of modification ≥70%) | < 100 |  | C=CC(=O)N1CC[C@@H](N(CC)c2nc(OC[C@@H]3CC4(CC4)CN3C)nc3c(F)c(-c4ccc(F)c5sc(N)c(C#N)c45)c(C(F)(F)F)cc23)[C@H]1C [Compound 65] |
| A (percent of modification ≥70%) | A (percent of modification ≥70%) | < 100 |  | C=CC(=O)N1CC[C@@H](N(CC)c2nc(OC[C@@H]3CCCN3C)nc3c(F)c(-c4ccc(F)c5sc(N)c(C#N)c45)c(C(F)(F)F)cc23)[C@H]1C [Compound 66] |
| A (percent of modification ≥70%) | A (percent of modification ≥70%) |  | < 100 | C=CC(=O)N1CC[C@@H](N(C)c2nc(OC[C@@H]3CCCN3C)nc3c(F)c(-c4ccc(F)c5sc(N)c(C#N)c45)c(C(F)(F)F)cc23)[C@H]1C [Compound 67] |
| C (10%≤percent of modification <50%) | B (50≤percent of modification <70%) | < 100 |  | C=CC(=O)N1CC[C@@H](N(CC)c2nc(OC[C@@H]3C[C@@H](OC)CN3C)nc3c(F)c(-c4ccc(F)c5sc(N)c(C#N)c45)c(Cl)cc23)[C@H]1C [Compound 73] |
| A (percent of modification ≥70%) | A (percent of modification ≥70%) |  | < 100 | C=CC(=O)N1CC[C@@H](N(CC)c2nc(OC[C@@H]3CC4(CC4)CN3C)nc3c(F)c(-c4ccc(F)c5sc(N)c(C#N)c45)c(Cl)cc23)[C@H]1C [Compound 75] |
| B (50≤percent of modification <70%) | A (percent of modification ≥70%) | 100 to 1000 |  | C=CC(=O)N1CC[C@@H](N(CC)c2nc(OC[C@@]34CCCN3C[C@H](F)C4)nc3cc(-c4ccc(F)c5sc(N)c(C#N)c45)c(F)cc23)[C@H]1CC [Compound 76] |
| A (percent of modification ≥70%) | A (percent of modification ≥70%) | < 100 |  | C=CC(=O)N1CC[C@@H](N(CC)c2nc(OC[C@@]34CCCN3C[C@H](F)C4)nc3c(F)c(-c4ccc(F)c5sc(N)c(C#N)c45)c(Cl)cc23)[C@@H]1C [Compound 77] |
| A (percent of modification ≥70%) | A (percent of modification ≥70%) | < 100 |  | C=CC(=O)N1CC[C@@H](N(C)c2nc(OC[C@@]34CCCN3C[C@H](F)C4)nc3c(F)c(-c4nc(N)cc(C)c4C(F)(F)F)c(Cl)cc23)[C@H]1C [Compound 78, 1-[(2R,3R)-3-[[7-[6-amino-4-methyl-3-(trifluoromethyl)-2-pyridyl]-6-chloro-8-fluoro-2-[[(2R,8S)-2-fluoro-1,2,3,5,6,7-hexahydropyrrolizin-8-yl]methoxy]quinazolin-4-yl]-methyl-amino]-2-methyl-pyrrolidin-1-yl]prop-2-en-1-one] |
| C (10%≤percent of modification <50%) | A (percent of modification ≥70%) | < 100 |  | C=CC(=O)N1CC[C@@H](N(C)c2nc(OC[C@@H]3C[C@@H](OC)CN3C)nc3c(F)c(-c4ccc(F)c5sc(N)c(C#N)c45)c(Cl)cc23)[C@@H]1C [Compound 79] |
| C (10%≤percent of modification <50%) | B (50≤percent of modification <70%) | 100 to 1000 |  | C=CC(=O)N1CC[C@@H](N(C)c2nc(N3CC(N(C)C)C3)nc3c(F)c(-c4ccc(F)c5sc(N)c(C#N)c45)c(C(F)(F)F)cc23)[C@H]1C [Compound 80] |
| C (10%≤percent of modification <50%) | A (percent of modification ≥70%) | < 100 |  | C=CC(=O)N1CC[C@@H](N(C)c2nc(OC[C@@H]3C[C@@H](F)CN3C)nc3c(F)c(-c4ccc(F)c5sc(N)c(C#N)c45)c(Cl)cc23)[C@@H]1C [Compound 82] |
| B (50≤percent of modification <70%) | A (percent of modification ≥70%) | < 100 |  | C=CC(=O)N1CC[C@@H](N(C)c2nc(OC[C@@H]3CCCN3C)nc3c(F)c(-c4ccc(F)c5sc(N)c(C#N)c45)c(Cl)cc23)[C@@H]1C [Compound 83] |
| B (50≤percent of modification <70%) | A (percent of modification ≥70%) | < 100 |  | C=CC(=O)N1CC[C@@H](N(C)c2nc(OC[C@@H]3CCCN3CC)nc3c(F)c(-c4ccc(F)c5sc(N)c(C#N)c45)c(Cl)cc23)[C@@H]1C [Compound 84] |
| B (50≤percent of modification <70%) | A (percent of modification ≥70%) | < 100 |  | C=CC(=O)N1CC[C@@H](N(CC)c2nc(OC[C@@]34CCCN3C[C@H](F)C4)nc3c(F)c(-c4ccc(F)c5sc(N)c(C#N)c45)c(C(F)(F)F)cc23)[C@@H]1C [Compound 86] |
| C (10%≤percent of modification <50%) | C (10%≤percent of modification <50%) | < 100 |  | C=CC(=O)N1CC[C@@H](N(C)c2nc(OCC3(CN4CCOCC4)CC3)nc3c(F)c(-c4ccc(F)c5sc(N)c(C#N)c45)c(C(F)(F)F)cc23)[C@H]1C [Compound 87] |
| C (10%≤percent of modification <50%) | B (50≤percent of modification <70%) | < 100 |  | C=CC(=O)N1CC[C@@H](N(C)c2nc(OC[C@@]34CCCN3C[C@H](F)C4)nc3c(F)c(-c4ccc(F)c5oc(N)c(C#N)c45)c(C(F)(F)F)cc23)[C@H]1C [Compound 90] |
